Measured values: patent US20210255193A1, “LYSINE REACTIVE PROBES AND USES THEREOF” (The Scripps Research Institute, priority 2017, published 2021)

How the values were obtained:
Assay in all cases: competitive isoTOP-ABPP
[1] = target: T1, KPNA2 Importin subunit alpha-2 (Homo sapiens, UniProt P52292); format: binding; details: 50 uM, 231 sol, in vitro; for R value (DMSO/fragment) for probe 1 labeling: P52292_K459
T1 construct: isoTOP-ABPP experiments performed in cell lysates (in vitro); endogenous in cells; host or cells: soluble proteome of human cancer cell lines (MDA-MB-231, Ramos, Jurkat)
Method in brief: (§1)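 Fragments at 50 μM (activated esters) or 100 μM (guanidinylating agents) were incubated with 0.5 ml lysate before probe labeling. After 0.1 mM STP-alkyne for 1 h, samples were clicked to isotopically distinct TEV tags, and R taken as DMSO-over-compound MS1 peak-area ratio.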

[2] = target: T2, GLUD1 Glutamate dehydrogenase 1, mitochondrial (Homo sapiens, UniProt P00367); format: binding; details: 50 uM, 231 sol, in vitro; for R value (DMSO/fragment) for probe 1 labeling: P00367_K480
T2 construct: isoTOP-ABPP experiments performed in cell lysates (in vitro); endogenous in cells; host or cells: MDA-MB-231 soluble lysate
Method in brief: as §1

[3] = target: T3, ABHD10 Abhydrolase domain-containing protein 10, mitochondrial (Homo sapiens, UniProt Q9NUJ1); format: binding; details: Q9NUJ1_K185; 50 uM, 231 sol, in vitro
T3 construct: endogenous in cells; host or cells: MDA-MB-231 lysate
T3 sequence (Q9NUJ1 53-306): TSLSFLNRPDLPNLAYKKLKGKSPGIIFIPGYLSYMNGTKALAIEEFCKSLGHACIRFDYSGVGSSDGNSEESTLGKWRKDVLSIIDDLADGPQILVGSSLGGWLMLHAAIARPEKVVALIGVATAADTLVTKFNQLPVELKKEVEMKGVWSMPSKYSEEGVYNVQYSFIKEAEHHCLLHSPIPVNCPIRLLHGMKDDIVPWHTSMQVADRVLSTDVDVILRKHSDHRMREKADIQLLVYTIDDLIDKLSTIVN
Description: (§2) In vitro covalent fragment treatment for isoTOP-ABPP. All compounds were made up as solutions in DMSO (100×) and were used at a final concentration of 50 μM for activated esters and 100 μM for guanidinylating agents. For each profiling sample, 0.5 ml of lysate was treated with 5 μl of the 100× compound stock solution or 5 μl of DMSO. Samples were treated with activated esters for
(§3) STP-alkyne labeling and click chemistry. For concentration-dependent reactivity measurements by isoTOP-ABPP, 0.5 ml proteome aliquots were treated at ambient temperature with 1 mM STP-alkyne 1 (5 μl of 100 mM stock in DMSO) and 0.1 mM STP alkyne 1 (5 μl of 10 mM stock in DMSO), respectively. For competitive isoTOP-ABPP, after in vitro fragment treatment (detailed above), the samples were labeled for 1 h at ambient temperature with 0.1 mM STP-alkyne 1 (5 μl of 10 mM stock in DMSO). Samples were conjugated by copper-mediated azide-alkyne cycloaddition (CuAAC) to either the light (1 mM STP-alkyne or fragment treated) or heavy (0.1 mM STP-alkyne or DMSO treated) TEV tags (10 μl of 5 mM stocks in DMSO, final concentration=100 μM) using tris(2-carboxyethyl)phosphine hydrochloride
(§4) R value calculation and processing. The ratios of light and heavy MS1 peaks for each unique peptide were quantified with a CIMAGE software using default parameters (3 MS1 acquisitions per peak and signal to noise threshold set to 2.5). For reactivity measurements by isoTOP-ABPP, the R value was calculated from the ratio of MS1 peak areas, comparing the 1 mM STP alkyne sample (light TEV tag) with the 0.1 mM STP alkyne sample (heavy TEV tag). For competitive isoTOP-ABPP, the R value was calculated from the ratio of MS1 peak areas, comparing the DMSO treated sample (heavy TEV tag) with the compound treated sample (light TEV tag). […] Ratios for unique peptide entries are calculated for each experiment; overlapping peptides with the same modified lysine (for example, different charge states, MudPIT chromatographic steps or tryptic termini) are grouped together and the median ratio is reported as the final ratio (R). The peptide ratios reported by CIMAGE were further filtered to ensure the removal or correction of low-quality ratios in each individual data set. The quality filters applied were the following: removal of half tryptic peptides; for ratios with high standard deviations from the median (90% of the median or above) the lowest ratio was taken instead of the median; removal of peptides with R=20 and only a single MS2 event triggered during the elution of the parent ion; manual annotation of all the peptides with ratios of 20, removing any peptides with low quality elution profiles that remained after the previous curation steps (only done for competitive isoTOP-ABPP).
(§5) Cross-data processing for fragment screening. For compound treated samples, biological replicates of the same condition were averaged, if the standard deviation was below 60% of the mean; otherwise, for lysines with at least one R value <4 for a particular compound, the lowest value of the ratio set was taken. For lysines, where all R values for a particular compound were ≥4, the average was reported. For peptides containing several possible modified lysines, the lysine with the highest number of quantification events was used for analysis and the remaining, redundant peptides were reported as alternative modification sites. Peptides included in the aggregate dataset (those used for further bioinformatics and statistical analyses) were required to have been quantified in 2 experiments for competitive isoTOP-ABPP. Lysines were categorized as liganded, if they had at least one ratio R≥4 (hit fragments). For liganded lysines with R=20 for all liganding events, lysines were required to have been quantified with R=20 in two separate experiments and were further required to have been quantified with R<20 in one additional experiment.

[4] = target: T4, MAP1LC3B Microtubule-associated proteins 1A/1B light chain (Homo sapiens, UniProt Q9GZQ8); format: binding; set-up: key to isoTOP-ABPP reactivity ratio at lysine Q9GZQ8_K51: R = MS1 peak area ratio, DMSO (heavy) / compound-treated (light); details: 50 uM, 231 sol, in vitro; for R value (DMSO/fragment) for probe 1 labeling: Q9GZQ8_K51
T4 construct: isoTOP-ABPP experiments performed in cell lysates (in vitro); endogenous in cells; host or cells: soluble proteome of human cancer cell lines (MDA-MB-231; Ramos and Jurkat also prepared)
Description: as §2, §3, §4, §5

[5] = target: T5, ABCE1 ATP-binding cassette sub-family E member 1 (Homo sapiens, UniProt P61221); details: 50 uM, 231 sol, in vitro
T5 construct: isoTOP-ABPP experiments performed in cell lysates (in vitro); endogenous in cells; host or cells: soluble proteome of human cancer cell lines (MDA-MB-231, Ramos, Jurkat)
Description: as §2, §3, §4, §5

[6] = target: T6, HDHD3 Haloacid dehalogenase-like hydrolase domain-containing protein 3 (Homo sapiens, UniProt Q9BSH5); format: binding; set-up: key to isoTOP-ABPP reactivity ratio at lysine Q9BSH5_K15: R = MS1 peak area ratio, DMSO (heavy) / compound-treated (light); details: 50 uM, 231 sol, in vitro; for R value (DMSO/fragment) for probe 1 labeling: Q9BSH5_K15
T6 construct: isoTOP-ABPP experiments performed in cell lysates (in vitro); endogenous in cells; host or cells: soluble proteome of human cancer cell lines (MDA-MB-231; Ramos and Jurkat also prepared)
T6 sequence (Q9BSH5 1-251): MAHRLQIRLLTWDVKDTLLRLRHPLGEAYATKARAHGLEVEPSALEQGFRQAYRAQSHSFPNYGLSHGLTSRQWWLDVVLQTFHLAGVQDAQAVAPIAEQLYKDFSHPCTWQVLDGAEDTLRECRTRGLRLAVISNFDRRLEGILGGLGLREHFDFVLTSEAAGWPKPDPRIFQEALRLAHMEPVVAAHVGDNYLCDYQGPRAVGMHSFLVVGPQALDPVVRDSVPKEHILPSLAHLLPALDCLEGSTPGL
Description: as §2, §3, §4, §5

[7] = target: T7, SRP54 Signal recognition particle 54 kDa protein (Homo sapiens, UniProt P61011); format: binding; details: P61011_K81; 50 uM, 231 sol, in vitro
T7 construct: isoTOP-ABPP experiments performed in cell lysates (in vitro); endogenous in cells; host or cells: soluble proteome of human cancer cell lines (MDA-MB-231, Ramos, Jurkat)
Description: as §2, §3, §4, §5

T2 sequence (P00367 54-558): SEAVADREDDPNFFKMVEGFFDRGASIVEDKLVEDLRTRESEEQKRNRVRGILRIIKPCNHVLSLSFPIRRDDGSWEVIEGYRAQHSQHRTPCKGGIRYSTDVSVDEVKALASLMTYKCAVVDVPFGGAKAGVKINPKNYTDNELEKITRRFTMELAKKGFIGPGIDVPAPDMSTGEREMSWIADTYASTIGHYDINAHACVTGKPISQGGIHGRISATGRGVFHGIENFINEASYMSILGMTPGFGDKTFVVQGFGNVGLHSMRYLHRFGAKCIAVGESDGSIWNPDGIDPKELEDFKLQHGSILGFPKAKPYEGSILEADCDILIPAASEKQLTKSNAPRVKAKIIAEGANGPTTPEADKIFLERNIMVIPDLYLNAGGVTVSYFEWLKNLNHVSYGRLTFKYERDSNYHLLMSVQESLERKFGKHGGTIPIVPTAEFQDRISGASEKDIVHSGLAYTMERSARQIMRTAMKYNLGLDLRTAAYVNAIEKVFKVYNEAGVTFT
T7 sequence (P61011 whole entry): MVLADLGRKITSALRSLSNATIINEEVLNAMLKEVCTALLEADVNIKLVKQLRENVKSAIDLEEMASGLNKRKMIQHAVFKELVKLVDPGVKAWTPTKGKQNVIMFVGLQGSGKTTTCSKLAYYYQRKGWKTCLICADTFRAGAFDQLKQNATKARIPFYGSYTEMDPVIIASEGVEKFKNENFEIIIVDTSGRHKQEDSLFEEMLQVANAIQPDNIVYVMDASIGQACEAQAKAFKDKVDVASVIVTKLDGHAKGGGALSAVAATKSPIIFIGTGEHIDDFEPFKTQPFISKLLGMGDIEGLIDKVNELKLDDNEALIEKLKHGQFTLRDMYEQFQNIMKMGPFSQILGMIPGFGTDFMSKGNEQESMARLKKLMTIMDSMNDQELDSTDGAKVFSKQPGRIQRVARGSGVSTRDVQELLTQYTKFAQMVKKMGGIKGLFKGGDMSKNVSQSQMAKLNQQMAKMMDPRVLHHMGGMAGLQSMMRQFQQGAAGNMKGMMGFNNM

In the case of `O=C(CCc1cn(-c2ccccc2)nc1-c1ccccc1)Oc1c(F)c(F)c(F)c(F)c1F` [fragment 19, Pentafluorophenyl 3-(1,3-diphenyl-1H-pyrazol-4-yl)propanoate], the “R value (DMSO/fragment) for probe 1 labeling” value (shortened to “R value (DMSO/fragment)”) [1] is reported as 2.3, the “R value (DMSO/fragment)” value [2] is reported as 1.0 and the “R value (DMSO/fragment)” value [3] is reported as 1.2. For the same compound, the “R value (DMSO/fragment)” value [4] was 1.0, the “R value (DMSO/fragment)” value ([5]; P61221_K191) was 0.9 and the “R value (DMSO/fragment)” value ([5]; P61221_K478) was 1.1. For the same compound, the “R value (DMSO/fragment)” value [6] was 20.0.
For `O=C(Oc1c(F)c(F)c(F)c(F)c1F)c1cc(C(F)(F)F)cc(C(F)(F)F)c1` [fragment 21, Pentafluorophenyl 3,5-bis(trifluoromethyl)benzoate], the “R value (DMSO/fragment)” value [1] was 1.0, the “R value (DMSO/fragment)” value [2] was 1.2 and the “R value (DMSO/fragment)” value [3] was 4.7. The “R value (DMSO/fragment)” value [7] was 0.7, the “R value (DMSO/fragment)” value ([5]; P61221_K191) was 1.0 and the “R value (DMSO/fragment)” value [6] was 1.0.
With `COc1cc(CCC(=O)Oc2c(F)c(F)c(F)c(F)c2F)cc(OC)c1OC` [fragment 23, Pentafluorophenyl 3-(3,4,5-trimethoxyphenyl)propanoate] the “R value (DMSO/fragment)” value [1] was 1.9, the “R value (DMSO/fragment)” value [2] was 1.8 and the “R value (DMSO/fragment)” value [3] was 2.0. For the same compound, the “R value (DMSO/fragment)” value [4] was 0.7, the “R value (DMSO/fragment)” value ([5]; P61221_K191) was 1.3 and the “R value (DMSO/fragment)” value ([5]; P61221_K478) was 1.5. For the same compound, the “R value (DMSO/fragment)” value [6] was 1.3.
`O=C(Oc1c(F)c(F)c(F)c(F)c1F)C1CCN(C(=O)OCc2ccccc2)CC1` [fragment 24, 1-Benzyl 4-(pentafluorophenyl) piperidine-1,4-dicarboxylate] was tested, and the “isoTOP-ABPP reactivity ratio at lysine P52292_K459” value [1] was 1.2, the “isoTOP-ABPP reactivity ratio at lysine P00367_K480” value [2] was 2.0 and the “isoTOP-ABPP reactivity ratio at lysine Q9GZQ8_K51” value [4] was 1.1. For the same compound, the “isoTOP-ABPP reactivity ratio at lysine P61221_K478” value [5] was 1.4 and the “isoTOP-ABPP reactivity ratio at lysine Q9BSH5_K15” value [6] was 2.3.
